Results taken from patent US20260297042A1, “BIARYLAMIDE DERIVATIVES AND THEIR USE AS PKMYT1 INHIBITORS” (CANCER RESEARCH TECHNOLOGY LIMITED, priority 2023, published 2026).
Counter-ions that a name gives are not always drawn.

Assays:
OVCAR 3 cells = test: Cancer cell line proliferation assay, ATP-based cell viability (Cell Titre Glow), OVCAR 3 (CCNE1-amplified); settings: KYSE30 (normal CCNE1) GI50 vs. OVCAR 3 (CCNE1-amplified) GI50
How it was run: (§1)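 GI50 values, the concentrations halving cell growth, were derived from ATP-based luminescence (Cell Titre Glo) after PKMYT1 inhibitor exposure. Cells tested were OVCAR 3, an ovarian line with amplified CCNE1, and KYSE-30, which has normal CCNE1.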

WEE1 = target: T1, WEE1 (Homo sapiens, UniProt P30291); test: Selectivity versus WEE1 assay (ADP-Glo enzymatic assay); format: biochemical; settings: for IC50: ADP-Glo; for PKMYT1 vs. WEE1 selectivity: fold difference in selectivity for PKMYT1 over WEE1
T1 construct: purchased Thermo Fisher PR7373A
How it was run: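 ADP-Glo luminescence read-out after a 60 min reaction at 26° C, initiated by 30 µM ATP, with 15 nM enzyme in HEPES pH 7.5/MgCl2/EGTA/Brij-35 buffer containing 1% DMSO. Replicate IC50 values had to agree within 3-fold and fits needed r2 >0.9.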

KYSE-30 cells = test: Cancer cell line proliferation assay, ATP-based cell viability (Cell Titre Glow), KYSE-30 (normal CCNE1); settings: Homo sapiens, KYSE-30 cells (normal CCNE1), concentration that achieves 50% cell growth proliferation inhibition, read-out: KYSE30 Gl50
How it was run: as §1

[1] = target: T2, Cellular PKMYT1 Biomarker CDK1 pT14 (Homo sapiens, UniProt Q99640); test: Inhibition of cellular PKMYT1 biomarker CDK1 pT14 in OVCAR 3 cells (immunoblot); format: cell-based; settings: 20 hours incubation
T2 construct: read-out CDK1 phospho-T14 immunoblot
T2 sequence (Q99640 1-499): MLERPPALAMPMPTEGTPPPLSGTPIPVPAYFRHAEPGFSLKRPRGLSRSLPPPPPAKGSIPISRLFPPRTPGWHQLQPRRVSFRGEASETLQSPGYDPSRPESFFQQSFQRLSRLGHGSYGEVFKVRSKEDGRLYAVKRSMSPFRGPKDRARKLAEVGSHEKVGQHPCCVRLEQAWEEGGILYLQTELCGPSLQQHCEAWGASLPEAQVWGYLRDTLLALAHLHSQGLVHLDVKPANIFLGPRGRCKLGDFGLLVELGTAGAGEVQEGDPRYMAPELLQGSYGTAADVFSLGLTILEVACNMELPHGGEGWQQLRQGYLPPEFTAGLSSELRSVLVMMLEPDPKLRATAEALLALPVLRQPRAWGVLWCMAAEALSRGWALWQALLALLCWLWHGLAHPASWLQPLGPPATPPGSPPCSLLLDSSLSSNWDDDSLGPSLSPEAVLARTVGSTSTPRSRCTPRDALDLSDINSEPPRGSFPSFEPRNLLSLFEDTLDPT
How it was run: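 Confluent OVCAR 3 cells treated with a compound concentration range for 20 h at 37 °C. Lysates analysed by automated capillary immunoblot for CDK1 phospho-T14, with vinculin, fluorescence detection; IC50 by regression.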

Human PKMYT1 = target: T3, Human PKMYT1 (Homo sapiens, UniProt Q99640); test: PKMYT1 biochemical ADP-Glo enzymatic assay; settings: ADP-Glo
T3 construct: Human PKMYT1 75-362 was cloned as a TEV cleavable 6xHis fusion; 6xHis (TEV cleavable) (cleaved yes); made in house; host or cells: bacterial cells
T3 sequence (Q99640 75-362): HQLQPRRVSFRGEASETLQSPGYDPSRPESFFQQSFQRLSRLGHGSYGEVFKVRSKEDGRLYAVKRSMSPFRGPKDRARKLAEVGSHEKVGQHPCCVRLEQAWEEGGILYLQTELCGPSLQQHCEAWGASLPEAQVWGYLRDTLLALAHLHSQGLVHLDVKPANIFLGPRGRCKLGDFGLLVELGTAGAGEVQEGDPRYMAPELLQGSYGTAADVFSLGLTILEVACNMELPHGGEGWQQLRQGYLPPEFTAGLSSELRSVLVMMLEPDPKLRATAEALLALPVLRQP
How it was run: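 Luminescent ADP-Glo Max read-out of ADP produced by 15 nM PKMYT1 (residues 75-362, bacterial, His-tag removed) from 500 µM ATP without peptide substrate. Reaction: 50 mM HEPES pH 7.5, 10 mM MgCl2, 1 mM EGTA, 0.01% Brij-35, 60 min, 26 °C. IC50 values fitted from 10-point curves.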

[2] = PKMYT1 kinase domain 15 nM, banded values
[3] = 15 nM WEE1, 60 minutes at 26° C., banded
[4] = banded, ">N" = at least in this band but could be higher
[5] = 15 nM PKMYT1 kinase domain, 500 µM ATP, 60 minutes at 26° C., banded

T1 sequence (P30291 whole entry): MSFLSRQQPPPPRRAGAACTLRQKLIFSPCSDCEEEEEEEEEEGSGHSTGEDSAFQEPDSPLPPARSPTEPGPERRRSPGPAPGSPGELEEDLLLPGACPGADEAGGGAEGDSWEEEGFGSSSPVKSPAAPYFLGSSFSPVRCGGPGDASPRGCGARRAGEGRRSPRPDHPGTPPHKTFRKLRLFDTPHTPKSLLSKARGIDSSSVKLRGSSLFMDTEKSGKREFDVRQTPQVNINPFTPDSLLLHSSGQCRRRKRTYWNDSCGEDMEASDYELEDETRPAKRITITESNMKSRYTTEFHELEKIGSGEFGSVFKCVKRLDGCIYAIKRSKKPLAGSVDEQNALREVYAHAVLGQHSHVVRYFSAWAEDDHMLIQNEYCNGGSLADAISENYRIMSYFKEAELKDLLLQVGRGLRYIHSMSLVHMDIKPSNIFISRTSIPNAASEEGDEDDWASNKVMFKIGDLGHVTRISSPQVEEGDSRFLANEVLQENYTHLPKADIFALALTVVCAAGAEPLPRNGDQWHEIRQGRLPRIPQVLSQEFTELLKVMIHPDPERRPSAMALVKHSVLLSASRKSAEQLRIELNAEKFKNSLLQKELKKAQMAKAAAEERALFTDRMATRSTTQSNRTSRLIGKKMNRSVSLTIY

Row | Structure (SMILES) | Selectivity ratio KYSE30 Gl50 vs. OVCAR3 Gl50 (OVCAR 3 cells) | IC50 (WEE1; WEE1 15 nM, banded values) | PKMYT1 vs. WEE1 selectivity (WEE1; banded) | GI50 (KYSE-30 cells) | IC50 [1] | IC50 (Human PKMYT1; [2]) | IC50 (WEE1; [3]) | PKMYT1 vs. WEE1 selectivity (WEE1; [4]) | IC50 (Human PKMYT1; [5])
1 | Cc1ccc(O)c(C)c1NC(=O)c1cnc(Nc2nc(N3CCOCC3)ccc2Cl)s1 [BAA-410, 2-((3-chloro-6-morpholinopyridin-2-yl)amino)-N-(3-hydroxy-2,6-dimethylphenyl)thiazole-5-carboxamide] | Y (>20 fold) | 1000 to 11000 nM | X (100-<1000 fold) | 500 to 5000 nM | < 100 nM | < 50 nM | – | – | –
2 | Cc1ccc(NC(=O)c2ccc(F)cc2)nc1Nc1ncc(C(=O)Nc2c(C)ccc(O)c2C)s1 [BAA-309, 2-((6-(4-fluorobenzamido)-3-methylpyridin-2-yl)amino)-N-(3-hydroxy-2,6-dimethylphenyl)thiazole-5-carboxamide] | Y (>20 fold) | – | – | 500 to 5000 nM | < 100 nM | – | > 11000 nM | Y (1000-5000 fold) | 50 to 1000 nM
3 | Cc1ccc(O)c(C)c1NC(=O)c1cnc(Nc2cc(Cl)cc(NC(=O)C(C)(C)C)n2)s1.Cl [BAA-334, 2-((4-chloro-6-pivalamidopyridin-2-yl)amino)-N-(3-hydroxy-2,6-dimethylphenyl)thiazole-5-carboxamide hydrochloride] | Y (>20 fold) | – | – | 500 to 5000 nM | < 100 nM | – | > 11000 nM | X (100-<1000 fold) | 50 to 1000 nM
4 | Cc1cn(-c2cnn(C)c2)nc1Nc1ncc(C(=O)Nc2c(C)ccc(O)c2C)s1 [BAA-385, 2-((1′′,4-dimethyl-1′H-[1,4′-bipyrazol]-3-yl)amino)-N-(3-hydroxy-2,6-dimethylphenyl)thiazole-5-carboxamide] | Y (>20 fold) | – | – | 500 to 5000 nM | < 100 nM | – | 1000 to 11000 nM | X (100-<1000 fold) | < 50 nM
5 | Cc1ccc(O)c(C)c1NC(=O)c1cnc(Nc2cccc(-c3cnn(C)c3)n2)s1 [BAA-390, N-(3-hydroxy-2,6-dimethylphenyl)-2-((6-(1-methyl-1H-pyrazol-4-yl)pyridin-2-yl)amino)thiazole-5-carboxamide] | Y (>20 fold) | – | – | 500 to 5000 nM | < 100 nM | – | 1000 to 11000 nM | X (100-<1000 fold) | < 50 nM
6 | Cc1ccc(O)c(C)c1NC(=O)c1cnc(Nc2cccc(N(C)C(=O)c3c(F)cc(F)cc3F)n2)s1 [BAA-325, N-(3-hydroxy-2,6-dimethylphenyl)-2-((6-(2,4,6-trifluoro-N-methylbenzamido)pyridin-2-yl)amino)thiazole-5-carboxamide] | X (3-20 fold) | – | – | > 5000 nM | < 100 nM | – | > 11000 nM | Y (1000-5000 fold) | 50 to 1000 nM
7 | Cc1ccc(NC(=O)C(C)C)nc1Nc1ncc(C(=O)Nc2c(C)ccc(O)c2C)s1.Cl [BAA-332, N-(3-hydroxy-2,6-dimethylphenyl)-2-((6-isobutyramido-3-methylpyridin-2-yl)amino)thiazole-5-carboxamide hydrochloride] | Y (>20 fold) | – | – | 500 to 5000 nM | < 100 nM | – | > 11000 nM | X (100-<1000 fold) | < 50 nM
8 | COc1cc(-c2cccc(Nc3ncc(C(=O)Nc4c(C)ccc(O)c4C)s3)n2)cc(OC)c1OC [BAA-317, N-(3-hydroxy-2,6-dimethylphenyl)-2-((6-(3,4,5-trimethoxyphenyl)pyridin-2-yl)amino)thiazole-5-carboxamide] | Y (>20 fold) | – | – | 500 to 5000 nM | < 100 nM | – | > 11000 nM | Y (1000-5000 fold) | < 50 nM
9 | Cc1cc(Nc2ncc(C(=O)Nc3c(C)ccc(O)c3C)s2)nc(NCCC(C)(C)C)n1 [BAA-338, 2-((2-((3,3-Dimethylbutyl)amino)-6-methylpyrimidin-4-yl)amino)-N-(3-hydroxy-2,6-dimethylphenyl)thiazole-5-carboxamide] | Y (>20 fold) | – | – | < 500 nM | < 100 nM | – | 1000 to 11000 nM | X (100-<1000 fold) | < 50 nM
10 | Cc1ccc(O)c(C)c1NC(=O)c1cnc(Nc2nn(CC(=O)N3CCCC3)cc2Cl)s1 [BAA-546, 2-((4-chloro-1-(2-oxo-2-(pyrrolidin-1-yl)ethyl)-1H-pyrazol-3-yl)amino)-N-(3-hydroxy-2,6-dimethylphenyl)thiazole-5-carboxamide] | Y (>20 fold) | 1000 to 11000 nM | X (100-<1000 fold) | > 5000 nM | < 100 nM | < 50 nM | – | – | –
11 | Cc1ccc(O)c(C)c1NC(=O)c1cnc(Nc2nn(C)c3ccccc23)s1 [BAA-126, N-(3-hydroxy-2,6-dimethyl-phenyl)-2-[(1-methylindazol-3-yl)amino]thiazole-5-carboxamide] | Y (>20 fold) | – | – | > 5000 nM | < 100 nM | – | 1000 to 11000 nM | X (100-<1000 fold) | < 50 nM
12 | CCc1cn(CC#N)nc1Nc1ncc(C(=O)Nc2c(C)ccc(O)c2C)s1 [BAA-590, 2-((1-(cyanomethyl)-4-ethyl-1H-pyrazol-3-yl)amino)-N-(3-hydroxy-2,6-dimethylphenyl)thiazole-5-carboxamide. TFA salt] | Y (>20 fold) | 50 to 1000 nM | W (10-<100 fold) | > 5000 nM | < 100 nM | < 50 nM | – | – | –
13 | Cc1cn(-c2ccccc2)nc1Nc1ncc(C(=O)Nc2c(C)ccc(O)c2C)s1 [BAA-361, N-(3-hydroxy-2,6-dimethylphenyl)-2-((4-methyl-1-phenyl-1H-pyrazol-3-yl)amino)thiazole-5-carboxamide] | Y (>20 fold) | – | – | 500 to 5000 nM | < 100 nM | – | > 11000 nM | X (100-<1000 fold) | < 50 nM
14 | Cc1cn(CC(F)F)nc1Nc1ncc(C(=O)Nc2c(C)ccc(O)c2C)s1 [BAA-478, 2-((1-(2,2-difluoroethyl)-4-methyl-1H-pyrazol-3-yl)amino)-N-(3-hydroxy-2,6-dimethylphenyl)thiazole-5-carboxamide] | Y (>20 fold) | 1000 to 11000 nM | X (100-<1000 fold) | > 5000 nM | < 100 nM | < 50 nM | – | – | –
15 | Cc1cn(C(CO)C(=O)N2CCCC2)nc1Nc1ncc(C(=O)Nc2c(C)ccc(O)c2C)s1 (stereo not drawn) [BAA-583, 2-((1-(3-Hydroxy-1-oxo-1-(pyrrolidin-1-yl)propan-2-yl)-4-methyl-1H-pyrazol-3-yl)amino)-N-(3-hydroxy-2,6-dimethylphenyl)thiazole-5-carboxamide] | Y (>20 fold) | 1000 to 11000 nM | X (100-<1000 fold) | > 5000 nM | < 100 nM | < 50 nM | – | – | –
